Literature values, collected in paper PMC12114947, “Evaluation of Violacein Metabolic Stability and Metabolite Identification in Human, Mouse, and Rat Liver Microsomes” (Pharmaceutics, 2025).
Where two headings read alike, the source gives them in different places.

Legend:
[1] = cited from earlier work
[2] = cited from earlier work; remark: listed apart in the source
[3] = cited from earlier work; remark: listed apart in the source
[4] = cited from earlier work; remark: listed apart in the source
[5] = cited from earlier work; remark: listed apart in the source
[6] = cited from earlier work; remark: listed apart in the source
[7] = parameters: method as in PMID 38399311; conditions: liver microsomes, humans; cited from earlier work
[8] = parameters: method as in PMID 38399311; conditions: liver microsomes, rats; cited from earlier work
[9] = parameters: method as in PMID 38399311; conditions: liver microsomes, mice; cited from earlier work
[10] = parameters: method as in PMID 9408857; conditions: rabbits; cited from earlier work
[11] = parameters: method as in PMID 9408857; conditions: dogs; cited from earlier work
[12] = parameters: method as in PMID 9408857; conditions: rats; cited from earlier work
[13] = parameters: method as in PMID 9408857; conditions: humans; cited from earlier work
[14] = parameters: method as in PMID 12920490, PMID 24002099, PMID 10445386; conditions: based on the human hepatic microsomal pathway; cited from earlier work

For `C[C@@H]1CC[C@H]2[C@@H](C)C(=O)O[C@@H]3O[C@@]4(C)CC[C@@H]1[C@]32OO4` [artemisinin], the t1/2 ([1]; in vivo) is listed as 1 to 2 h.
In the case of `NC(Cc1cc(I)c(Oc2cc(I)c(O)c(I)c2)c(I)c1)C(=O)O` (stereo not shown) [thyroxine], the “CLint, in vitro” value ([2]; human donor 1364) is given as 0.61 mL/min/10^6 cells, the “CLint, in vitro” value ([2]; human donor Hu1362) is given as 0.56 mL/min/10^6 cells and the “CLint, in vitro” value ([3]; rat 1) is given as 1.08 mL/min/10^6 cells. For the same molecule, the “CLint, in vitro” value ([3]; rat 2) was 0.75 mL/min/10^6 cells.
For `OC(c1cc(C(F)(F)F)nc2c(C(F)(F)F)cccc12)C1CCCCN1` (stereo not shown) [mefloquine], the Clearance ([4]; in vivo) is given as 0.33 to 0.83 mL/min/kg.
In the case of `CCN(CC)CCCC(C)Nc1ccnc2cc(Cl)ccc12` (stereo not shown) [chloroquine], the Clearance [4] is listed as 1.5 to 1.7 mL/min/kg.
For `CO[C@H]1O[C@@H]2O[C@@]3(C)CC[C@H]4[C@H](C)CC[C@@H]([C@H]1C)[C@@]24OO3` [artemether], the Clearance ([4]; artemether alone) is listed as 281.3 ± 67.3 mL/min/kg and the Clearance ([4]; co-administered with pyronaridine) is listed as 466.7 ± 36 mL/min/kg.
For `Cc1ncc2n1-c1ccc(Cl)cc1C(c1ccccc1F)=NC2` [midazolam], the “CLint, in vivo” value ([5]; human) is given as 6.67 mL/min/kg, the t1/2 ([5]; humans) is given as 1.85 h and the “CLint, in vivo” value ([6]; rat) is given as 79.2 mL/min/kg. The t1/2 ([6]; rats) was “about 31 min”.
In the case of `CCCC(NCC)C(=O)c1ccccc1` (stereo not shown) [N-ethyl pentedrone], the t1/2 [7] is given as 12.8 h, the t1/2 [8] is given as 0.202 h and the t1/2 [9] is given as 3.12 h.
For `CNS(=O)(=O)Cc1ccc2[nH]cc(CCN(C)C)c2c1` [sumatriptan], the Clearance [10] is listed as 26 mL/min/kg, the Clearance [11] is listed as 14 mL/min/kg and the Clearance [12] is listed as 44.7 mL/min/kg. For the same molecule, the Clearance [13] was “approximately 1.10 L/h/kg”.
In the case of `COc1cc(NC(C)CCCN)c2ncccc2c1` (stereo not shown) [primaquine], the “Estimated CLint, in vivo” value [14] is listed as “approximately 0.017 mL/min/kg”.
In the case of `CCCCN(CCCC)CC(O)c1cc(Cl)cc2c1-c1ccc(Cl)cc1/C2=C/c1ccc(Cl)cc1` (stereo not shown) [lumefantrine], the t1/2 ([1]; antimalarials) is given as 72 to 144 h.
